Test results from patent USRE38424E1 (The United States of America as represented by the …, priority 1994, dated 2004).
Read-outs that look alike come from different tables or passages of the source.

Tests used:
[1] = tested on: recurrent advanced stage epithelial ovarian cancer; experiment: Phase II dose intense taxol with G-CSF support: disease response and survival; type: in vivo, human
Description: A total of 47 patients were included in this study. All patients had recurrent advanced stage epithelial ovarian cancer confirmed on histologic review at the Laboratory of Pathology, National Cancer Institute (NCI). Borderline, mixed, and germ cell histologies were excluded.
A complete response (CR) was defined as patients having a complete resolution of disease as determined by both physical and radiographic examination as well as normalization of CA-125 lasting at least 4 weeks. A partial response (PR) patient was defined as having a greater than 50% reduction in the sum of the products of bidimensional measurements of all sites of disease as determined by both physical and radiographic analysis which lasted at least 4 weeks, and wherein no development of new lesions was observed. A minor response (MR) patient was defined as having greater than 25% but less than 50% reduction in the sum of the products of the perpendicular diameters of all measurable lesions and wherein no new sites of disease were observed. A stable disease (SD) was defined as patients having less than a 25% increase or less than a 25% reduction in sum of the product of the perpendicular diameters of all measurable lesions in response to therapy, without development of new lesions, for at least 4 weeks. Progressive disease (PD) was defined as patients having an increase of at least 25% in the sum of the products of the perpendicular diameters of all measurable lesions and/or the development of new lesions.
CA-125 levels were followed in all patients but were not used to define a patient's response except in one situation.

[2] = tested on: ovarian cancer; conditions: cited from earlier work; for Response rate: taxol without G-CSF
[3] = Nerve conduction studies in two patients with grade 3 polyneuropathy; conditions: for MAP Amplitude Percent Decrement / MAP Amplitude Lowest on Taxol: Motor; for SAP Amplitude Percent Decrement / SAP Amplitude Lowest on Taxol: Sensory
Description: In two of these patients who developed clinical evidence of neuropathy, the studies were repeated on three occasions in case 1 and once in case 2. In all 12 patients, maximal motor and sensory conduction velocities and response amplitudes were recorded for the median or ulnar nerve in the upper limb and for the peroneal and sural nerves in the lower limb.

[4] = dose intense taxol with G-CSF, 44 assessable patients
[5] = dose intense taxol with G-CSF, 44 assessable patients, listed as taxol
[6] = nineteen patients treated until CR or progression

## CC(=O)O[C@H]1C(=O)[C@@]2(C)[C@H]([C@H](OC(=O)c3ccccc3)[C@]3(O)C[C@H](OC(=O)[C@H](O)[C@@H](NC(=O)c4ccccc4)c4ccccc4)C(C)=C1C3(C)C)[C@]1(OC(C)=O)CO[C@@H]1C[C@@H]2O [Taxol, taxol]
[1]; 21/44, 95% CI: 33-63%, taxol 250 mg/m^2/21 days with G-CSF
  Overall objective response rate: 48%
[1]; 95% confidence interval, 25-67%
  Survival at one year: 45.3%
[1]; Kaplan-Meier, phase II
  Median survival time: 11.5 months
[1]; [4]
  CR, % of Cohort: 14%
  CR, No. of Patients: 6
  MR, % of Cohort: 11%
  MR, No. of Patients: 5
  NR, % of Cohort: 25%
  NR, No. of Patients: 11
  PR, % of Cohort: 34%
  PR, No. of Patients: 15
[1]; [5]
  CR, No. of Patients: Six
  MR, No. of Patients: five
  PR, No. of Patients: Fifteen
[1]; [6]
  Median number of cycles required to reach an objective response: four
  Number of cycles required to reach an objective response, range: two to eight
[1]; taxol about 250 mg/m^2/ 21 days
  Objective response rate: about 50%
[1]; taxol about 250 mg/m^2/ 21 days vs standard dose
  Increase in the response rate versus standard dose: 67%
[2]; "standard" dose of taxol (about 135 mg/m^2/ 21 days)
  Objective response rate: about 30%
[2]; Einzig et al.
  Response rate: 21%
[2]; Gynecologic Oncology Group (Thigpen et al.)
  Response rate: 36%
[2]; McGuire et al.
  Response rate: 33%
[2]; taxol 110 to 200 mg/m^2, cisplatin-sensitive and cisplatin-resistant advanced stage epithelial ovarian cancer
  Patients with objective responses: about 30%
[3]; Median nerve, case 2
  MAP Amplitude Percent Decrement: None
  SAP Amplitude Percent Decrement: 13%
[3]; Median nerve, case 2, control 10.5 mV
  MAP Amplitude Lowest on Taxol: 10.8 mV
[3]; Peroneal nerve, case 1
  MAP Amplitude Percent Decrement: 49%
[3]; Peroneal nerve, case 1, control 3.9 mV
  MAP Amplitude Lowest on Taxol: 1.9 mV
[3]; Peroneal nerve, case 2
  MAP Amplitude Percent Decrement: None
[3]; Peroneal nerve, case 2, control 2.7 mV
  MAP Amplitude Lowest on Taxol: 2.7 mV
[3]; Ulnar nerve, case 1
  MAP Amplitude Percent Decrement: None
  SAP Amplitude Percent Decrement: 62%
[3]; Ulnar nerve, case 1, control 6.9 mV
  MAP Amplitude Lowest on Taxol: 7.1 mV
[3]; Median nerve, case 2, control 69 μV
  SAP Amplitude Lowest on Taxol: 60 μV
[3]; Sural nerve, case 1
  SAP Amplitude Percent Decrement: 75%
[3]; Sural nerve, case 1, control 8 μV
  SAP Amplitude Lowest on Taxol: 2 μV
[3]; Sural nerve, case 2
  SAP Amplitude Percent Decrement: 44%
[3]; Sural nerve, case 2, control 32 μV
  SAP Amplitude Lowest on Taxol: 18 μV
[3]; Ulnar nerve, case 1, control 19 μV
  SAP Amplitude Lowest on Taxol: 6 μV
